# Data from patent US12528774B2, “Thiosemicarbazone compounds and uses thereof” (The Regents of the University of California, priority 2019, dated 2026).
# Test system: MIAPACA2 cells
# Assay: Mito Stress Test (oxygen consumption rate, Seahorse)
# Type: cell-based, human
# Settings: HCT13 25 nM + Cu(II) 20 μM, 24 h
# Procedure: FIG. 3A: Mito Stress Test of MIAPACA2 PDAC cells treated with HCT13 (25 nM)+Cu(II) (20 μM) for 24h. FIG. 3B: electron flow assay in isolated mitochondria treated with HCT-13 (100 nM)+Cu(II) (20 μM) for 1h. FIG. 3C: viability of 143 BTK parental (wild type, WT) and ρ0 cells after 48h of the indicated HCT13 concentration+Cu(II) (20 μM) treatment, assessed with Trypan Blue Staining. FIG. 3D: 48h cell cycle histogram and plots of S-phase arrest plots in 143 BTK WT and 143 BTK ρ0 cells at 24, 48 and 72h following treatment with indicated concentrations of HCT13+Cu(II)(20 μM). (mean±SD, n=2, one-way ANOVA corrected for multiple comparisons by Bonferroni adjustment, * P<0.05; ** P<0.01; *** P<0.001). […]
# Mito Stress Test and Electron Flow Assay: All oxygen consumption rate (OCR) was measured using a XF24 Analyzer (Agilent) and normalized per μg protein. […] OCR was measured before (total respiration) and after the sequential injection of 1 μM oligomycin (complex V inhibitor), 0.75 μM FCCP (uncoupler), and 1 μM of rotenone and myxothiazol (complex I and III inhibitors, respectively), as described previously (1). Mitochondrial respiration was calculated by subtracting the non-mitochondrial respiration left after rotenone and myxothiazol injection. […] OCR was measured before and after the sequential injections described in the previous paragraph. […]
smiles,measurement,setting,value
"CN(C)C(=S)N/N=C/c1nccc2cc(F)ccc12 (mixture of isomers) [HCT13, (E)-2-((6-Fluoroisoquinolin-1-yl)methylene)-N,N-dimethylhydrazine-1-carbothioamide and (Z)-2-((6-Fluoroisoquinolin-1-yl)methylene)-N,N-dimethylhydrazine-1-carbothioamide]",basal respiration and maximum respiratory capacity (OCR),,significantly reduced
same,basal respiration and maximum respiratory capacity (OCR),listed as HCT-13,decreased significantly
